Assay results reported in patent US20230203485A1, “METHODS FOR MODULATING MHC-I EXPRESSION AND IMMUNOTHERAPY USES THEREOF” (Dana-Farber Cancer Institute, Inc., priority 2020, published 2023).

Test system: class I antigen presentation gene expression in MCC cell lines
Experiment: RNA-seq / DESeq2 differential expression of MCC cell lines at baseline and after IFN-γ stimulation
Assay type: cell-based, human
Conditions: for log2FoldChange: 11 MCC cell lines, baseline vs IFNγ, negative LFC = upregulation in IFNγ-treated
Protocol: FIG. 2A comprises RNA-seq heatmaps of class I antigen presentation gene expression in MCC lines and controls.
FIG. 2B is a volcano plot of differentially expressed genes (genes below FDR cutoff 0.01 are shown in yellow) between baseline and IFN-γ-treated MCC cell lines. Differential expression analysis was performed using DESeq2, and negative LFC indicates increased expression in +IFN-γ samples. IFN genes are highlighted in red.
RNA samples were first assessed for quality using the Agilent Bioanalyzer (DV200 metric). One hundred ng of RNA were used as the input for first strand cDNA synthesis using Superscript III reverse transcriptase and Illumina's TruSeq RNA Access Sample Prep Kit. Synthesis of the second strand of cDNA was followed by indexed adapter ligation with UMI (unique molecular index) adaptors. Subsequent PCR amplification enriched for adapted fragments. Amplified libraries were quantified, normalized, pooled, and hybridized with exome targeting oligos. Following hybridization, bead clean-up, elution and PCR was performed to prepare library pools for sequencing on Illumina flowcell lanes. Transcriptomes were sequenced to a coverage of at least 50 million reads in pairs.
Raw fastq files for fibroblast and keratinocyte control lines were downloaded from SRA using R Bioconductor package SRAdb (Mayakonda et al. (2018) supra; Zhu et al. (2013) BMC Bioinformatics 14 (1): 1-4) using accession codes SRP126422 (4 replicates from control samples ‘NN’) and SRP131347 (6 replicates with condition: control and genotype: control). These fastq files, along with those for the mkl1 and waga cell lines, were aligned using STAR version 2.7.3a (Dobin et al. (2013) Bioinformatics 29 (1): 15-21), using index genome reference file downloaded from ftp.ebi.ac.uk/pub/databases/gencode/Gencode_human/release_19/GRCh37.p13.genome.fa.gz, transcript annotation file downloaded from data.broadinstitute.org/snowman/hg19/star/gencode.v19.annotation.gtf, and with the following options: --twopassMode Basic, --outSAMstrandField intronMotif, --alignIntronMax 1000000, --alignMatesGapMax 1000000, --sjdbScore 2, --outSAMtype BAM Unsorted, --outSAMattributes NH HI NM MD AS XS, --outFilterType BySJout, --outSAMunmapped Within, --genomeLoad NoSharedMemory, --outFilterScoreMinOverLread 0, --outFilterMatchNminOverLread 0, --outFilterMismatchNmax 999, and outFilterMultimapNmax 20. Duplicates were marked with picard MarkDuplicates version 2.22.0-SNAPSHOT.
RNA-sequencing bam files for MCC tumor and cell line samples were downloaded from the Broad Genomics Firecloud/Terra platform using the Google Cloud Storage command line tool gsutil version 4.5 (github.com/GoogleCloudPlatform/gsutil/).
Gene counts were obtained from bam files using featureCounts version 2.0.0 (doi.org/10.1093/bioinformatics/btt656). Very lowly expressed genes with average count across samples less than 1 were excluded from analysis. Between-sample distance metrics were computed using the Euclidean distance on the vectors of variance-stabilized counts obtained from the vst function in the DESeq2 R Bioconductor package ([…]; Love et al. (2014) Genome Biology 15 (12): 550).
Differential expression analysis was carried out between (1) viral positive and viral negative samples (adjusting for cell line or tumor as a covariate), (2) cell line and tumor samples (adjusting for viral status as a covariate), and (3) IFNγ plus and minus samples (adjusting for viral status as a covariate) using the negative binomial GLM Wald test of DESeq2, where significance was assessed using the p-values adjusted for multiple comparisons under default settings. To account for potential global gene expression differences among sample groups, RUVg (Risso et al. (2014) […] 32 (9): 896-902) was used to estimate latent factors of unwanted variation from the list of housekeeping genes downloaded from www.tau.ac.il/˜elieis/HKG/HK_genes.txt. […]

Question: “IFN-y: type II interferon, recombinant human, used to treat MCC cells” was tested. Which log2FoldChange (ENSG00000259321.1 (symbol NA)) did it give?
Answer: −2.031

Question: What about the log2FoldChange (ENSG00000259529.1 (symbol NA)) of the same substance?
Answer: −0.9956

Question: And the log2FoldChange (ENSG00000260929.1 (symbol NA))?
Answer: −3.413

Question: And the log2FoldChange (ENSG00000261644.1 (symbol NA))?
Answer: −3.585

Question: What about the log2FoldChange (ENSG00000261690.1 (symbol NA)) of the same substance?
Answer: −3.339

Question: And the log2FoldChange (ENSG00000261884.2 (symbol NA))?
Answer: −2.414

Question: And the log2FoldChange (ENSG00000262222.1 (symbol NA))?
Answer: −3.296

Question: What about the log2FoldChange (ENSG00000262979.1 (symbol NA)) of the same substance?
Answer: −3.334

Question: What about the log2FoldChange (ENSG00000263013.1 (symbol NA)) of the same substance?
Answer: −1.286

Question: What about the log2FoldChange (ENSG00000263120.1 (symbol NA)) of the same substance?
Answer: −1.445

Question: What about the log2FoldChange (ENSG00000263179.1 (symbol NA)) of the same substance?
Answer: −3.474

Question: What about the log2FoldChange (ENSG00000269640.1 (symbol NA)) of the same substance?
Answer: −6.567

Question: What about the log2FoldChange (ENSG00000271579.1 (symbol NA)) of the same substance?
Answer: −6.737

Question: What about the log2FoldChange (ENSG00000273189.1 (symbol NA)) of the same substance?
Answer: −1.701

Question: What about the log2FoldChange (EPSTI1 ENSG00000133106.10) of the same substance?
Answer: −3.837

Question: And the log2FoldChange (FBXO7 ENSG00000100225.13)?
Answer: −0.4101

Question: And the log2FoldChange (FBXO39 ENSG00000177294.6)?
Answer: −6.492

Question: And the log2FoldChange (FBXO47 ENSG00000204952.2)?
Answer: −4.04

Question: And the log2FoldChange (FLT3LG ENSG00000090554.8)?
Answer: −2.012

Question: What about the log2FoldChange (HELZ2 ENSG00000130589.12) of the same substance?
Answer: −1.739

Question: What about the log2FoldChange (ICAM1 ENSG00000090339.4) of the same substance?
Answer: −6.633

Question: What about the log2FoldChange (IFI27 ENSG00000165949.8) of the same substance?
Answer: −3.4

Question: And the log2FoldChange (IFI35 ENSG00000068079.3)?
Answer: −6.454

Question: What about the log2FoldChange (IL12RB1 ENSG00000096996.11) of the same substance?
Answer: −4.561

Question: What about the log2FoldChange (IRF8 ENSG00000140968.6) of the same substance?
Answer: −2.927

Question: What about the log2FoldChange (IRF9 ENSG00000213928.4) of the same substance?
Answer: −2.537

Question: What about the log2FoldChange (ISG20 ENSG00000172183.10) of the same substance?
Answer: −2.416

Question: What about the log2FoldChange (KRT39 ENSG00000196859.3) of the same substance?
Answer: −4.95

Question: What about the log2FoldChange (LGALS3BP ENSG00000108679.8) of the same substance?
Answer: −1.502

Question: And the log2FoldChange (LGALS9 ENSG00000168961.12)?
Answer: −2.739

Question: What about the log2FoldChange (LGALS17A ENSG00000226025.5) of the same substance?
Answer: −5.881

Question: What about the log2FoldChange (LINC01993 ENSG00000204277.1) of the same substance?
Answer: −2.419

Question: What about the log2FoldChange (LOC254028 ENSG00000258573.1) of the same substance?
Answer: −5.436

Question: And the log2FoldChange (LOC100294362 ENSG00000263069.1)?
Answer: 1.32

Question: What about the log2FoldChange (LOC100996660 ENSG00000267248.1) of the same substance?
Answer: −0.6048

Question: And the “HLA-A, -B, and -C mRNA” value (MCC-336, line non-IFN-responsive by flow cytometry)?
Answer: lack of IFN-induced HLA-A, -B, and -C mRNA upregulation

Question: And the log2FoldChange (MIR762HG ENSG00000260083.1)?
Answer: −0.6586

Question: What about the log2FoldChange (MLKL ENSG00000168404.8) of the same substance?
Answer: −2.957

Question: What about the log2FoldChange (MT2A ENSG00000125148.6) of the same substance?
Answer: −1.532

Question: And the log2FoldChange (MVP ENSG00000013364.14)?
Answer: −1.512

Question: And the log2FoldChange (MX2 ENSG00000183486.8)?
Answer: −5.048

Question: And the log2FoldChange (MXI ENSG00000157601.9)?
Answer: −7.168

Question: And the log2FoldChange (NLRC5 ENSG00000140853.11)?
Answer: −5.85

Question: What about the log2FoldChange (NUCB1 ENSG00000104805.11) of the same substance?
Answer: −0.6283

Question: What about the log2FoldChange (OAS1 ENSG00000089127.8) of the same substance?
Answer: −4.621

Question: What about the log2FoldChange (OAS2 ENSG00000111335.8) of the same substance?
Answer: −5.442

Question: What about the log2FoldChange (OAS3 ENSG00000111331.8) of the same substance?
Answer: −2.277

Question: What about the log2FoldChange (OASL ENSG00000135114.8) of the same substance?
Answer: −6.129

Question: And the log2FoldChange (OGFR ENSG00000060491.12)?
Answer: −1

Question: What about the log2FoldChange (PARP4 ENSG00000102699.5) of the same substance?
Answer: −1.087

Question: And the log2FoldChange (PATL2 ENSG00000229474.2)?
Answer: −4.443

Question: What about the log2FoldChange (PLK1 ENSG00000166851.10) of the same substance?
Answer: 0.5496

Question: And the log2FoldChange (PMAIP1 ENSG00000141682.11)?
Answer: −0.9928

Question: And the log2FoldChange (PML ENSG00000140464.15)?
Answer: −1.421

Question: What about the log2FoldChange (PSMA3 ENSG00000100567.8) of the same substance?
Answer: −0.4149

Question: And the log2FoldChange (PSMB10 ENSG00000205220.7)?
Answer: −5.255

Question: And the log2FoldChange (PSME1 ENSG00000092010.10)?
Answer: −1.964

Question: What about the log2FoldChange (PSME2 ENSG00000100911.9) of the same substance?
Answer: −1.919

Question: And the log2FoldChange (RAB2B ENSG00000129472.8)?
Answer: −0.4425

Question: What about the log2FoldChange (RIN3 ENSG00000100599.11) of the same substance?
Answer: −2.337

Question: And the log2FoldChange (RNF31 ENSG00000092098.12)?
Answer: −0.6387

Question: And the log2FoldChange (RNF213 ENSG00000173821.15)?
Answer: −3.097

Question: And the log2FoldChange (SAMHD1 ENSG00000101347.7)?
Answer: −2.663

Question: And the log2FoldChange (SOCS1 ENSG00000185338.4)?
Answer: −2.585

Question: And the log2FoldChange (SOCS3 ENSG00000184557.3)?
Answer: −1.797

Question: What about the log2FoldChange (SPTLC3 ENSG00000172296.8) of the same substance?
Answer: −2.773

Question: What about the log2FoldChange (STAT3 ENSG00000168610.10) of the same substance?
Answer: −0.9181

Question: And the log2FoldChange (TEKT5 ENSG00000153060.3)?
Answer: −1.743

Question: And the log2FoldChange (TRAFD1 ENSG00000135148.7)?
Answer: −0.5883

Question: And the log2FoldChange (TRIM25 ENSG00000121060.10)?
Answer: −1.048

Question: What about the log2FoldChange (TRIM69 ENSG00000185880.8) of the same substance?
Answer: −2.829

Question: What about the log2FoldChange (USP18 ENSG00000184979.9) of the same substance?
Answer: −1.899

Question: And the log2FoldChange (USP30-AS1 ENSG00000256262.1)?
Answer: −8.218

Question: And the log2FoldChange (VPS13C ENSG00000129003.11)?
Answer: −0.9131

Question: And the log2FoldChange (WARS ENSG00000140105.13)?
Answer: −3.32

Question: What about the log2FoldChange (WIPI1 ENSG00000070540.8) of the same substance?
Answer: −1.205

Question: What about the log2FoldChange (XAFI ENSG00000132530.12) of the same substance?
Answer: −11.47

Question: And the log2FoldChange (ZBP1 ENSG00000124256.10)?
Answer: −5.347

Question: What about the log2FoldChange (ZNFX1 ENSG00000124201.10) of the same substance?
Answer: −1.109
